# According to US20260285875A1, “INHIBITORS OF PARG” (858 Therapeutics, Inc., priority 2023, published 2026):
# Target: T1, cellular PARG (Homo sapiens, UniProt Q86W56)
# T1 construct: endogenous in cells; host or cells: HeLa
# Experiment: Nuclear PAR accumulation assay (immunofluorescence high-content imaging, MMS-treated HeLa cells)
# Format: cell-based
# Conditions: 1 hour compound then MMS 50 μg/mL for an additional hour
# Summary of the method: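 HeLa cells pretreated with compound for 1 h at 37° C, then given 50 μg/mL MMS for another hour. After methanol fixation, PAR was immunostained with DAPI nuclear counterstain; per-nucleus intensity and percent PAR-positive cells were imaged at 20× (≥1,000 cells/well). IC50 from four-parameter logistic fit.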
# T1 sequence (Q86W56 whole entry): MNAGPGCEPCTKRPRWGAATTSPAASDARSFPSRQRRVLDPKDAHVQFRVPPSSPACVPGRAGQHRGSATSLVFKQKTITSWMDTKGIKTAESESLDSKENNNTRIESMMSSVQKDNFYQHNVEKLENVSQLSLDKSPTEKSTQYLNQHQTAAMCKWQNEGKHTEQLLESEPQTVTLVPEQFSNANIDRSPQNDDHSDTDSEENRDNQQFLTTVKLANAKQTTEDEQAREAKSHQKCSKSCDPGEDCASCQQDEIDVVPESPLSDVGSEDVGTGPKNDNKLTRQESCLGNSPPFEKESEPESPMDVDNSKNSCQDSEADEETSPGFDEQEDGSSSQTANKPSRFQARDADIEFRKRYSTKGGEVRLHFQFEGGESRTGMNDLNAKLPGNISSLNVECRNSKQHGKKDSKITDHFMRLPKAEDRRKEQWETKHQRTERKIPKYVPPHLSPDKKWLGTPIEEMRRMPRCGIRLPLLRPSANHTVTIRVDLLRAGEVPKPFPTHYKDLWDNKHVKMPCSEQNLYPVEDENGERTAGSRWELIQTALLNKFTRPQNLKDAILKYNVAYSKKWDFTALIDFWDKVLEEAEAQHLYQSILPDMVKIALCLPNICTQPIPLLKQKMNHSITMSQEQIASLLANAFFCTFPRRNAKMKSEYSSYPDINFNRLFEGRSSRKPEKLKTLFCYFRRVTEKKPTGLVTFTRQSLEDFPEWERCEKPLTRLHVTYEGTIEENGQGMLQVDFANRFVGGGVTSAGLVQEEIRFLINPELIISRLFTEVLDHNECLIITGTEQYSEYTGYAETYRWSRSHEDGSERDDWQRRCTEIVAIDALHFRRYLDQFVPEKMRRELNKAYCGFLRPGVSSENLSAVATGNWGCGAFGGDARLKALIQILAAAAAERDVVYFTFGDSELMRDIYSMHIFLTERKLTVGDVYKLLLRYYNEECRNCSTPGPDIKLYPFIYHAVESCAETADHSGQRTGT
row,Structure (SMILES),IC50 [nM]
1,"Cn1cc(CN2C(=O)c3cc(S(=O)(=O)NC4(C)CC4)ccc3N3C2=NC[C@H]3C#Cc2ccccn2)cn1 [Example 67, (R)-4-((1-methyl-1H-pyrazol-4-yl)methyl)-N-(1-methylcyclopropyl)-5-oxo-1-(pyridin-2-ylethynyl)-1,2,4,5-tetrahydroimidazo[1,2-a]quinazoline-7-sulfonamide]",< 100
2,"Cn1cc(CN2C(=O)c3cc(S(=O)(=O)NC4(C)CC4)ccc3N3C2=NC[C@H]3C#Cc2ncccn2)cn1 [Example 68, (R)-4-((1-methyl-1H-pyrazol-4-yl)methyl)-N-(1-methylcyclopropyl)-5-oxo-1-(pyrimidin-2-ylethynyl)-1,2,4,5-tetrahydroimidazo[1,2-a]quinazoline-7-sulfonamide]",< 100
3,"Cn1cc(CN2C(=O)c3cc(S(=O)(=O)NC4(C)CC4)ccc3N3C2=NC[C@H]3C#CC(C)(C)O)cn1 [Example 69, (R)-1-(3-hydroxy-3-methylbut-1-yn-1-yl)-4-((1-methyl-1H-pyrazol-4-yl)methyl)-N-(1-methylcyclopropyl)-5-oxo-1,2,4,5-tetrahydroimidazo[1,2-a]quinazoline-7-sulfonamide]",100 to 1000
4,"CN1CCC([C@@H]2CN=C3N(Cc4cnn(C)c4)C(=O)c4cc(S(=O)(=O)NC5(C)CC5)ccc4N32)CC1 [Example 70, (R)-4-((1-methyl-1H-pyrazol-4-yl)methyl)-N-(1-methylcyclopropyl)-1-(1-methylpiperidin-4-yl)-5-oxo-1,2,4,5-tetrahydroimidazo[1,2-a]quinazoline-7-sulfonamide]",1000 to 10000
5,"C[C@@H]1CN=C2N(Cc3cnn(C)c3)C(=O)c3cc(S(=O)(=O)NC4(C)CC4)cc(N4CC[C@@H](N)C4)c3N21 [Example 71, (R)-9-((R)-3-aminopyrrolidin-1-yl)-1-methyl-4-((1-methyl-1H-pyrazol-4-yl)methyl)-N-(1-methylcyclopropyl)-5-oxo-1,2,4,5-tetrahydroimidazo[1,2-a]quinazoline-7-sulfonamide]",100 to 1000
6,"C#C[C@@H]1CN=C2N(Cc3cnn(C)c3)C(=O)c3cc(S(=O)(=O)NC4(C)CC4)cc(Br)c3N21 [Example 72, (R)-9-bromo-1-ethynyl-4-((1-methyl-1H-pyrazol-4-yl)methyl)-N-(1-methylcyclopropyl)-5-oxo-1,2,4,5-tetrahydroimidazo[1,2-a]quinazoline-7-sulfonamide]",< 100
7,"C[C@@H]1CN=C2N(Cc3cnn(C)c3)C(=O)c3cc(S(=O)(=O)NC4(C)COC4)ccc3N21 [Example 73, (R)-1-methyl-4-((1-methyl-1H-pyrazol-4-yl)methyl)-N-(3-methyloxetan-3-yl)-5-oxo-1,2,4,5-tetrahydroimidazo[1,2-a]quinazoline-7-sulfonamide]",100 to 1000
8,"C[C@@H]1CN=C2N(Cc3cnn(C)c3)C(=O)c3cc(S(=O)(=O)NC4(C)CC4)cc(N4CC(C)(N)C4)c3N21 [Example 74, (R)-9-(3-amino-3-methylazetidin-1-yl)-1-methyl-4-((1-methyl-1H-pyrazol-4-yl)methyl)-N-(1-methylcyclopropyl)-5-oxo-1,2,4,5-tetrahydroimidazo[1,2-a]quinazoline-7-sulfonamide]",1000 to 10000
9,"C[C@@H]1CN=C2N(Cc3cnn(C)c3)C(=O)c3cc(S(=O)(=O)NC4(C)CC4)cc(N4CC[C@H](N)C4)c3N21 [Example 75, (R)-9-((S)-3-aminopyrrolidin-1-yl)-1-methyl-4-((1-methyl-1H-pyrazol-4-yl)methyl)-N-(1-methylcyclopropyl)-5-oxo-1,2,4,5-tetrahydroimidazo[1,2-a]quinazoline-7-sulfonamide]",100 to 1000
10,"C#C[C@@H]1CN=C2N(Cc3cnn(C)c3)C(=O)c3cc(S(=O)(=O)NC4(C)CC4)cc(C4=CCN(C)CC4)c3N21 [Example 76, (R)-1-ethynyl-9-(1-methyl-1,2,3,6-tetrahydropyridin-4-yl)-4-((1-methyl-1H-pyrazol-4-yl)methyl)-N-(1-methylcyclopropyl)-5-oxo-1,2,4,5-tetrahydroimidazo[1,2-a]quinazoline-7-sulfonamide]",< 100
